The values below are quoted from earlier work in patent publication US5559147A, “Aromatic fluorine-containing organotin compounds and anti-tumour composition” (Pharmachemie B.V., priority 1994, dated 1996).

One data set relates to WiDR, a colon carcinoma. The following applies: earlier work.
Data set [1] deals with two human tumour cell lines, MCF-7 and WiDR. Particulars: in words.
A further data set has as its system MCF-7, a mammary tumour. The following applies: earlier work.

On to `CCC[CH2][Sn]([CH2]CCC)([O]C(=O)c1cccc(F)c1F)[O]C(=O)c1cccc(F)c1F` [(2,3-F2 C6 H3 CO2)2 SnBu2], for which the ID50 in the data set with WiDR, a colon carcinoma was 0.283 µg/mL; in the data set with MCF-7, a mammary tumour, 0.023 µg/mL. Further, in data set [1], the “ID50 compared with reference drug” value is “comparable to mitomycin C”.
As to `CCC[CH2][Sn]([CH2]CCC)([O]C(=O)c1ccc(F)cc1)[O]C(=O)c1ccc(F)cc1` [(4-F-C6 H4 CO2)2 SnBu2], the ID50 in the data set on WiDR, a colon carcinoma was 0.309 µg/mL; with MCF-7, a mammary tumour, 0.09 µg/mL. Also, the “ID50 compared with reference drug” value in data set [1] was “comparable to those observed for etoposide”.
In the case of `CCC[CH2][Sn+2][CH2]CCC.O=C([O-])c1c(F)c(F)c(F)c(F)c1C(=O)[O-]` [Di-n-butyltintetrafluorophthalate], the ID50 in the data set with WiDR, a colon carcinoma is 0.068 µg/mL; in the data set on MCF-7, a mammary tumour it was 0.051 µg/mL.
As for {(2,3,4,5-F4 C6 HCO2 SnBu2)2 O}2, the ID50 in the data set on WiDR, a colon carcinoma was 0.25 µg/mL; with MCF-7, a mammary tumour, 0.035 µg/mL.
Consider {(2,3,6-F3 C6 H3 CO2 SnBu2)2 O}2, for which the ID50 in the data set with WiDR, a colon carcinoma is 0.2 µg/mL; with MCF-7, a mammary tumour, 0.013 µg/mL.
On to {(2,3-F2 C6 H3 CO2 SnBu2)2 O}2, for which the ID50 in the data set with WiDR, a colon carcinoma is 0.12 µg/mL; in the data set on MCF-7, a mammary tumour it was 0.009 µg/mL. The “ID50 compared with reference drug” value in data set [1] is “comparable to mitomycin C”.
In the case of {(2-F-C6 H4 CH=CHC2 SnBu2)2 O}2, the ID50 in the data set on WiDR, a colon carcinoma was 0.368 µg/mL; with MCF-7, a mammary tumour, 0.028 µg/mL.
Consider {(4-F-C6 H4 CH2 CO2 SnBu2)2 O}2, for which the ID50 with WiDR, a colon carcinoma is 0.268 µg/mL; in the data set with MCF-7, a mammary tumour, 0.038 µg/mL.
Turning to {(4-F-C6 H4 CO2 SnBu2)2 O}2, the ID50 was 0.36 µg/mL with WiDR, a colon carcinoma and 0.081 µg/mL in the data set on MCF-7, a mammary tumour. The “ID50 compared with reference drug” value in data set [1] is on record as “comparable to those observed for etoposide”.
